Measured values taken from US20230085307A1, “PYRIDAZINONE COMPOUND AND HERBICIDE” (NISSAN CHEMICAL CORPORATION, priority 2019, published 2023).

Experiments:
[1] = tested on: late watergrass; assay: Test Example 1: herbicidal activity, application before weed generation under submerged conditions (Table 16, symbol A); format: in vivo, late watergrass (Echinochloa oryzicola); details: 320 g/ha applied herbicide
Method in brief: (§1)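 Submerged Wagner pots (alluvial soil, 4 cm water) sown with weed seeds and planted with 2.5-leaf rice seedlings; emulsifiable concentrate diluted in water applied to water surface on sowing day. Held in greenhouse at 25-30 °C; injury scored 0-5 by herbicidal rate after three weeks.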

[2] = tested on: Japanese bulrush; assay: Test Example 1: herbicidal activity, application before weed generation under submerged conditions (Table 16, symbol B); format: in vivo, Japanese bulrush (Schoenoplectus juncoides); details: 320 g/ha applied herbicide
Method in brief: as §1

[3] = tested on: late watergrass; assay: Test Example 2: herbicidal activity, application during weed generation under submerged conditions (Table 17, symbol A); format: in vivo, late watergrass (Echinochloa oryzicola); details: AAH 320 g/ha; application during weed generation, submerged conditions
Method in brief: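 3-wk visual-criteria score after one water-surface dose. Emulsion formulation, water-diluted to set rate; applied at 1–2 leaf stage; alluvial soil, 4 cm standing water; seeds co-sown; greenhouse 25–30° C.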

[4] = tested on: Chinese sprangletop; assay: Test Example 3: herbicidal effect by foliage application, Wagner pot (Table 18, symbol D); format: in vivo, chinese sprangletop (Leptochloa chinensis); details: amount of applied herbicide 320 g/ha
Method in brief: (§2)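 Plants were sown in alluvial soil held under 0.1–0.5 cm standing water and grown 14 days in a greenhouse at 25–30 °C. An emulsifiable formulation, water-diluted to the set dose, was then sprayed onto the foliage, and effects were scored three weeks later using previously defined criteria.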

[5] = tested on: rice flat sedge; assay: Test Example 3: herbicidal effect by foliage application, Wagner pot (Table 18, symbol E); format: in vivo, rice flat sedge (Cyperus iria); details: amount of applied herbicide 320 g/ha
Method in brief: as §2

[6] = tested on: southern crabgrass; assay: Test Example 4: herbicidal effect by soil treatment (Table 19, symbol F); format: in vivo, southern crabgrass (Digitaria ciliaris); details: amount of applied herbicide 320 g/ha
Method in brief: (§3)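 In this soil treatment, the formulated compound reached the seeds only through the soil: seeds were buried about 1.5 cm deep in sterilized diluvial soil, then the diluted emulsion was sprayed over the surface. After three weeks at 25° C. to 30° C. in a greenhouse, effects were graded on criteria from an earlier test.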

[7] = tested on: wild oat; assay: Test Example 4: herbicidal effect by soil treatment (Table 19, symbol I); format: in vivo, wild oat (Avena fatua); details: amount of applied herbicide 320 g/ha
Method in brief: as §3

[8] = tested on: Italian ryegrass; assay: Test Example 4: herbicidal effect by soil treatment (Table 19, symbol K); format: in vivo, Italian ryegrass (Lolium multiflorum); details: amount of applied herbicide 320 g/ha
Method in brief: as §3

[9] = tested on: windgrass; assay: Test Example 4: herbicidal effect by soil treatment (Table 19, symbol L); format: in vivo, windgrass (Apera spica-venti); details: amount of applied herbicide 320 g/ha
Method in brief: as §3

[10] = tested on: lambsquarters; assay: Test Example 4: herbicidal effect by soil treatment (Table 19, symbol O); format: in vivo, lambsquarters (Chenopodium album); details: amount of applied herbicide 320 g/ha
Method in brief: as §3

[11] = tested on: chickweed; assay: Test Example 4: herbicidal effect by soil treatment (Table 19, symbol P); format: in vivo, common chickweed (Stellaria media); details: amount of applied herbicide 320 g/ha
Method in brief: as §3

[12] = tested on: green foxtail; assay: Test Example 5: herbicidal effect by foliage application, plastic box (Table 20, symbol G); format: in vivo, green foxtail (Setaria viridis); details: foliage application, 320 g/ha, evaluated three weeks after application
Method in brief: (§4)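 Plants were sown into sterilized diluvial soil under about 1.5 cm cover and kept in a greenhouse at 25° C. to 30° C. Fourteen days on, foliage received an even spray of the diluted emulsion. Herbicidal or crop effect was judged three weeks afterwards.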

[13] = tested on: barnyard grass; assay: Test Example 5: herbicidal effect by foliage application, plastic box (Table 20, symbol H); format: in vivo, barnyard grass (Echinochloa crus-galli); details: foliage application, 320 g/ha, evaluated three weeks after application
Method in brief: as §4

[14] = tested on: wild oat; assay: Test Example 5: herbicidal effect by foliage application, plastic box (Table 20, symbol I); format: in vivo, wild oat (Avena fatua); details: foliage application, 320 g/ha, evaluated three weeks after application
Method in brief: as §4

[15] = tested on: blackgrass; assay: Test Example 5: herbicidal effect by foliage application, plastic box (Table 20, symbol J); format: in vivo, blackgrass (Alopecurus myosuroides); details: foliage application, 320 g/ha, evaluated three weeks after application
Method in brief: as §4

[16] = tested on: Italian ryegrass; assay: Test Example 5: herbicidal effect by foliage application, plastic box (Table 20, symbol K); format: in vivo, Italian ryegrass (Lolium multiflorum); details: foliage application, 320 g/ha, evaluated three weeks after application
Method in brief: as §4

[17] = tested on: velvetleaf; assay: Test Example 5: herbicidal effect by foliage application, plastic box (Table 20, symbol M); format: in vivo, velvetleaf (Abutilon theophrasti); details: foliage application, 320 g/ha, evaluated three weeks after application
Method in brief: as §4

SMILES	Herbicidal effect on A: late watergrass (grade 0-5) [1]	Herbicidal effect on B: Japanese bulrush (grade 0-5) [2]	herbicidal effect rating, A: late watergrass [3]	herbicidal effect on D: Chinese sprangletop [4]	herbicidal effect on E: rice flat sedge [5]	F: southern crabgrass, herbicidal effect rating [6]	I: wild oat, herbicidal effect rating [7]	K: Italian ryegrass, herbicidal effect rating [8]	L: windgrass, herbicidal effect rating [9]	O: lambsquarters, herbicidal effect rating [10]	P: chickweed, herbicidal effect rating [11]	herbicidal effect on G: green foxtail (criteria 0-5) [12]	herbicidal effect on H: barnyard grass (criteria 0-5) [13]	herbicidal effect on I: wild oat (criteria 0-5) [14]	herbicidal effect on J: blackgrass (criteria 0-5) [15]	herbicidal effect on K: Italian ryegrass (criteria 0-5) [16]	herbicidal effect on M: velvetleaf (criteria 0-5) [17]	other results
Cc1nn(C)c(=O)c(-c2c(-c3ccc(Br)cc3)sc3ccc(F)cc23)c1O [2-205]	4 (Herbicidal rate of 70% or more and less than 90%)	3 (Herbicidal rate of 40% or more and less than 70%)	2 (Herbicidal rate of 20% or more and less than 40%)	4 (Herbicidal rate of 70% or more and less than 90%)	5 (Herbicidal rate of 90% or more (almost completely withered))	5 (Herbicidal rate of 90% or more (almost completely withered))	1 (Herbicidal rate of 5% or more and less than 20%)	5 (Herbicidal rate of 90% or more (almost completely withered))	0 (Herbicidal rate of 5% or less (almost no effect))	5 (Herbicidal rate of 90% or more (almost completely withered))	3 (Herbicidal rate of 40% or more and less than 70%)	5 (Herbicidal rate of 90% or more (almost completely withered))	5 (Herbicidal rate of 90% or more (almost completely withered))	4 (Herbicidal rate of 70% or more and less than 90%)	4 (Herbicidal rate of 70% or more and less than 90%)	5 (Herbicidal rate of 90% or more (almost completely withered))	5 (Herbicidal rate of 90% or more (almost completely withered))	–
CCCC(=O)Oc1c(C)nn(C)c(=O)c1-c1c(-c2ccc(Br)cc2)sc2ccc(F)cc12 [2-206]	5 (Herbicidal rate of 90% or more (almost completely withered))	5 (Herbicidal rate of 90% or more (almost completely withered))	4 (Herbicidal rate of 70% or more and less than 90%)	4 (Herbicidal rate of 70% or more and less than 90%)	5 (Herbicidal rate of 90% or more (almost completely withered))	1 (Herbicidal rate of 5% or more and less than 20%)	0 (Herbicidal rate of 5% or less (almost no effect))	5 (Herbicidal rate of 90% or more (almost completely withered))	2 (Herbicidal rate of 20% or more and less than 40%)	4 (Herbicidal rate of 70% or more and less than 90%)	4 (Herbicidal rate of 70% or more and less than 90%)	3 (Herbicidal rate of 40% or more and less than 70%)	5 (Herbicidal rate of 90% or more (almost completely withered))	4 (Herbicidal rate of 70% or more and less than 90%)	4 (Herbicidal rate of 70% or more and less than 90%)	5 (Herbicidal rate of 90% or more (almost completely withered))	5 (Herbicidal rate of 90% or more (almost completely withered))	–
CCc1ccc(-c2sc3ccc(F)cc3c2-c2c(O)c(C)nn(C)c2=O)cc1 [2-207]	2 (Herbicidal rate of 20% or more and less than 40%)	4 (Herbicidal rate of 70% or more and less than 90%)	3 (Herbicidal rate of 40% or more and less than 70%)	5 (Herbicidal rate of 90% or more (almost completely withered))	5 (Herbicidal rate of 90% or more (almost completely withered))	3 (Herbicidal rate of 40% or more and less than 70%)	0 (Herbicidal rate of 5% or less (almost no effect))	4 (Herbicidal rate of 70% or more and less than 90%)	3 (Herbicidal rate of 40% or more and less than 70%)	5 (Herbicidal rate of 90% or more (almost completely withered))	3 (Herbicidal rate of 40% or more and less than 70%)	4 (Herbicidal rate of 70% or more and less than 90%)	4 (Herbicidal rate of 70% or more and less than 90%)	3 (Herbicidal rate of 40% or more and less than 70%)	4 (Herbicidal rate of 70% or more and less than 90%)	4 (Herbicidal rate of 70% or more and less than 90%)	5 (Herbicidal rate of 90% or more (almost completely withered))	–
Cc1nn(C)c(=O)c(-c2c(-c3cccc(OCC(C)C)c3)sc3ccc(F)cc23)c1O [2-221]	5 (Herbicidal rate of 90% or more (almost completely withered))	5 (Herbicidal rate of 90% or more (almost completely withered))	5 (Herbicidal rate of 90% or more (almost completely withered))	5 (Herbicidal rate of 90% or more (almost completely withered))	5 (Herbicidal rate of 90% or more (almost completely withered))	5 (Herbicidal rate of 90% or more (almost completely withered))	0 (Herbicidal rate of 5% or less (almost no effect))	4 (Herbicidal rate of 70% or more and less than 90%)	3 (Herbicidal rate of 40% or more and less than 70%)	4 (Herbicidal rate of 70% or more and less than 90%)	3 (Herbicidal rate of 40% or more and less than 70%)	5 (Herbicidal rate of 90% or more (almost completely withered))	5 (Herbicidal rate of 90% or more (almost completely withered))	5 (Herbicidal rate of 90% or more (almost completely withered))	5 (Herbicidal rate of 90% or more (almost completely withered))	5 (Herbicidal rate of 90% or more (almost completely withered))	5 (Herbicidal rate of 90% or more (almost completely withered))	–
Cc1nn(C)c(=O)c(-c2c(-c3cccc(OC(C)(C)C)c3)sc3ccc(F)cc23)c1O [2-223]	4 (Herbicidal rate of 70% or more and less than 90%)	4 (Herbicidal rate of 70% or more and less than 90%)	3 (Herbicidal rate of 40% or more and less than 70%)	3 (Herbicidal rate of 40% or more and less than 70%)	4 (Herbicidal rate of 70% or more and less than 90%)	–	–	–	–	–	–	1 (Herbicidal rate of 5% or more and less than 20%)	4 (Herbicidal rate of 70% or more and less than 90%)	1 (Herbicidal rate of 5% or more and less than 20%)	0 (Herbicidal rate of 5% or less (almost no effect))	1 (Herbicidal rate of 5% or more and less than 20%)	5 (Herbicidal rate of 90% or more (almost completely withered))	herbicidal effect on F: southern crabgrass [6]: 4 (Herbicidal rate of 70% or more and less than 90%); herbicidal effect on I: wild oat [7]: 0 (Herbicidal rate of 5% or less (almost no effect)); herbicidal effect on K: Italian ryegrass [8]: 0 (Herbicidal rate of 5% or less (almost no effect)); herbicidal effect on L: windgrass [9]: 0 (Herbicidal rate of 5% or less (almost no effect)); herbicidal effect on O: lambsquarters [10]: 3 (Herbicidal rate of 40% or more and less than 70%); herbicidal effect on P: chickweed [11]: 4 (Herbicidal rate of 70% or more and less than 90%)
